# Results reported in patent US10111435B2, “Herbicidal compositions containing N-(1,3,4-oxadiazol-2-yl)-aryl carboxylic acid amides” (BAYER CROPSCIENCE AKTIENGESELLSCHAFT, priority 2013, dated 2018).
# Legend:
# Format in all cases: in vivo
# [1] = test system: Setaria viridis (SETVI); assay: greenhouse post-emergence herbicidal efficacy against SETVI
# Description: (§1) All trials whose results are shown were conducted in a greenhouse by the methodology specified below. The effect of the inventive herbicidal compositions was examined on the following harmful plants 14 and 21 days after application:
# (§2) Echinochloa crus-galli (ECHCG), Eleusine indica (ELEIN), Setaria viridis (SETVI), Amaranthus retroflexus (AMARE), Chenopodium album (CHEAL), Kochia scoparia (KCHSC), Solanum nigrum (SOLNI), Avena fatua (AVEFA), Bromus sterilis (BROST), Lolium multiflorum (LOLMU), Phalaris minor (PHAMI), Poa annua (POAAN), Galium aparine (GALAP), Matricaria inodora (MATIN) and Polygonum convolvulus (POLCO).
# (§3) The harmful plant seeds were sown in pots (diameter 8 cm) with sandy loam soil and germinated under optimal conditions. The inventive herbicidal compositions or the active ingredients alone were applied post-emergence to the planted pots with a spray volume of 300 L/ha. The trial was conducted in a greenhouse under optimum growth conditions. The herbicidal effects were assessed visually by comparison of untreated and treated plants. The percentages mean: 0%=no effects, 100%=the plants die off completely). The percentages are used to calculate interactions between individual treatments and combination treatments according to S. R. Colby, Weeds 15, pages 20 to 22 (1967).
# (§4) The abbreviations mean: • a.i.=active ingredient • E^C=expected value according to Colby (E^C=A+B−A×B/100) • Diff: =difference (%) of measured value from expected value (%) (measured value minus expected value)
# (§5) Assessment: • measured value E is greater than E^C:->synergism (+ diff.) • measured value E equals E^C:->additive effect • measured value E is smaller than E^C:->antagonism(− diff.)
# [2] = test system: Echinochloa crus-galli (ECHCG); assay: greenhouse post-emergence herbicidal efficacy against ECHCG
# Description: as §1, §2, §3, §4, §5
# [3] = test system: Kochia scoparia (KCHSC); assay: greenhouse post-emergence herbicidal efficacy against KCHSC; details: 4 g of a.i./ha
# Description: as §1, §2, §3, §4, §5
# [4] = test system: Bromus sterilis (BROST); assay: greenhouse post-emergence herbicidal efficacy against BROST
# Description: as §1, §2
# as §3, with “completely).” for “completely). The percentages are used to calculate interactions between individual treatments and combination treatments according to S. R. Colby, Weeds 15, pages 20 to 22 (1967).”
# as §4, §5
# [5] = test system: Avena fatua (AVEFA); assay: greenhouse post-emergence herbicidal efficacy against AVEFA
# Description: as §1, §2
# as §3, with “completely).” for “completely). The percentages are used to calculate interactions between individual treatments and combination treatments according to S. R. Colby, Weeds 15, pages 20 to 22 (1967).”
# as §4, §5
# [6] = test system: Lolium multiflorum (LOLMU); assay: greenhouse post-emergence herbicidal efficacy against LOLMU
# Description: as §1, §2
# as §3, with “completely).” for “completely). The percentages are used to calculate interactions between individual treatments and combination treatments according to S. R. Colby, Weeds 15, pages 20 to 22 (1967).”
# as §4, §5
# [7] = test system: Chenopodium album (CHEAL); assay: greenhouse post-emergence herbicidal efficacy against CHEAL
# Description: as §1, §2, §3, §4, §5
# [8] = test system: Phalaris minor (PHAMI); assay: greenhouse post-emergence herbicidal efficacy against PHAMI
# Description: as §1, §2
# as §3, with “completely).” for “completely). The percentages are used to calculate interactions between individual treatments and combination treatments according to S. R. Colby, Weeds 15, pages 20 to 22 (1967).”
# as §4, §5
# [9] = test system: Polygonum convolvulus (POLCO); assay: greenhouse post-emergence herbicidal efficacy against POLCO
# Description: as §1, §2
# as §3, with “completely).” for “completely). The percentages are used to calculate interactions between individual treatments and combination treatments according to S. R. Colby, Weeds 15, pages 20 to 22 (1967).”
# as §4, §5
# [10] = test system: Poa annua (POAAN); assay: greenhouse post-emergence herbicidal efficacy against POAAN
# Description: as §1, §2
# as §3, with “completely).” for “completely). The percentages are used to calculate interactions between individual treatments and combination treatments according to S. R. Colby, Weeds 15, pages 20 to 22 (1967).”
# as §4, §5
# [11] = test system: Galium aparine (GALAP); assay: greenhouse post-emergence herbicidal efficacy against GALAP
# Description: as §1, §2
# as §3, with “completely).” for “completely). The percentages are used to calculate interactions between individual treatments and combination treatments according to S. R. Colby, Weeds 15, pages 20 to 22 (1967).”
# as §4, §5
# [12] = test system: Eleusine indica (ELEIN); assay: greenhouse post-emergence herbicidal efficacy against ELEIN
# Description: as §1, §2, §3, §4, §5
# [13] = test system: Matricaria inodora (MATIN); assay: greenhouse post-emergence herbicidal efficacy against MATIN
# Description: as §1, §2
# as §3, with “completely).” for “completely). The percentages are used to calculate interactions between individual treatments and combination treatments according to S. R. Colby, Weeds 15, pages 20 to 22 (1967).”
# as §4, §5
# [14] = test system: Amaranthus retroflexus (AMARE); assay: greenhouse post-emergence herbicidal efficacy against AMARE
# Description: as §1, §2, §3, §4, §5
# [15] = test system: Solanum nigrum (SOLNI); assay: greenhouse post-emergence herbicidal efficacy against SOLNI; details: 21 days after application
# Description: as §1, §2, §3, §4, §5
# [16] = test system: DIGSA; assay: greenhouse post-emergence herbicidal efficacy against DIGSA
# Description: as §1, §3, §4, §5
# [17] = 21 days after application, 4 g of a.i./ha
# [18] = 21 days after application, 1 g of a.i./ha
# [19] = 14 days after application, 4 g of a.i./ha
# [20] = 14 days after application, 5 g of a.i./ha
# [21] = 14 days after application, 20 g of a.i./ha
# [22] = 21 days after application, g of a.i./ha: A1-3 5, pinoxaden 20
# [23] = 21 days after application, g of a.i./ha: A1-3 20, pinoxaden 5
# [24] = 21 days after application, g of a.i./ha: A1-3 20, pinoxaden 20
# [25] = 21 days after application, 25 g of a.i./ha
# [26] = 14 days after application, 50 g of a.i./ha
# [27] = 21 days after application, g of a.i./ha: A1-34 50, iodosulfuron-methyl-sodium 2
# [28] = 21 days after application, g of a.i./ha: A1-34 200, iodosulfuron-methyl-sodium 2
# [29] = 14 days after application, 200 g of a.i./ha
# [30] = 21 days after application, g of a.i./ha: A1-34 50, iodosulfuron-methyl-sodium 0.5
# [31] = 14 days after application, 2 g of a.i./ha
# [32] = 21 days after application, 2 g of a.i./ha
# [33] = 14 days after application, 0.5 g of a.i./ha
# [34] = 14 days after application, 2.5 g of a.i./ha
# [35] = 21 days after application, g of a.i./ha: A1-55 2.5, glufosinate-ammonium 100
# [36] = 21 days after application, g of a.i./ha: A1-55 10, glufosinate-ammonium 25
# [37] = 21 days after application, g of a.i./ha: A1-55 10, glufosinate-ammonium 100
# [38] = 14 days after application, 10 g of a.i./ha
# [39] = 21 days after application, g of a.i./ha: A1-55 2.5, glufosinate-ammonium 25
# [40] = 14 days after application, 12.5 g of a.i./ha
# [41] = 21 days after application, g of a.i./ha: A2-1 50, fluroxypyr 80
# [42] = 21 days after application, g of a.i./ha: A2-1 12.5, fluroxypyr 80
# [43] = 21 days after application, g of a.i./ha: A2-1 12.5, fluroxypyr 20
# [44] = 21 days after application, g of a.i./ha: A2-1 50, fluroxypyr 20
smiles,measurement,setting,value
COCc1nnc(NC(=O)c2ccc(C(F)(F)F)c(S(C)(=O)=O)c2C)o1 [A1-3],Efficacy,[1]; [17],20%
same,Efficacy,[1]; [18],10%
same,Efficacy,"[2]; 14 days after application, 1 g of a.i./ha",0%
same,Efficacy,[2]; [19],40%
same,Efficacy,[2]; [17],10%
same,Efficacy,[2]; [18],0%
same,Efficacy,[3]; 14 days after application,40%
same,Efficacy,[3]; 21 days after application,20%
same,Efficacy,[4]; [20],0%
same,Efficacy,[4]; [21],5%
same,Efficacy,[5]; [20],0%
same,Efficacy,[5]; [21],0%
same,Efficacy,[6]; [20],0%
same,Efficacy,[6]; [22],0%
same,Efficacy,[6]; [23],5%
same,Efficacy,[7]; [18],20%
same,Efficacy,[8]; [20],0%
same,Efficacy,[8]; [21],20%
same,Efficacy,[8]; [23],5%
same,Efficacy,[8]; [24],5%
same,Efficacy,[9]; [20],0%
same,Efficacy,[9]; [21],10%
same,Efficacy,[9]; [23],5%
same,Efficacy,[9]; [24],5%
same,Efficacy,[10]; [20],0%
same,Efficacy,[10]; [21],5%
same,Efficacy,[10]; [22],0%
same,Efficacy,[10]; [24],3%
same,Efficacy,[11]; [20],40%
same,Efficacy,[11]; [22],5%
same,Efficacy,[11]; [23],5%
same,Efficacy,[11]; [24],5%
same,Efficacy,[12]; [19],50%
same,Efficacy,[12]; [17],20%
same,Efficacy,[13]; [20],30%
Cc1c(C(=O)Nc2nnc(C3CC3)o2)ccc(C(F)(F)F)c1[S+](C)[O-] (stereo not shown) [A1-34],Efficacy,[14]; [25],30%
same,Efficacy,"[14]; 21 days after application, 100 g of a.i./ha",50%
same,Efficacy,[4]; [26],10%
same,Efficacy,[4]; [27],15%
same,Efficacy,[4]; [28],35%
same,Efficacy,[5]; [28],5%
same,Efficacy,[6]; [26],5%
same,Efficacy,[6]; [29],30%
same,Efficacy,[15]; 25 g of a.i./ha,10%
same,Efficacy,[7]; [25],70%
same,Efficacy,[8]; [29],60%
same,Efficacy,[9]; [29],30%
same,Efficacy,[9]; [30],0%
same,Efficacy,[9]; [27],0%
same,Efficacy,[10]; [29],85%
same,Efficacy,[11]; [26],50%
same,Efficacy,[11]; [30],20%
same,Efficacy,[11]; [28],40%
same,Efficacy,[13]; [30],50%
Cc1nnc(NC(=O)c2ccc(C(F)(F)F)c(-n3cccn3)c2Cl)o1 [A1-55],Efficacy,[1]; [31],40%
same,Efficacy,[1]; [32],30%
same,Efficacy,[14]; [33],20%
same,Efficacy,"[14]; 21 days after application, 0.5 g of a.i./ha",10%
same,Efficacy,[16]; [33],20%
same,Efficacy,[16]; [32],30%
same,Efficacy,[4]; [34],5%
same,Efficacy,[4]; [35],0%
same,Efficacy,[4]; [36],10%
same,Efficacy,[5]; [34],0%
same,Efficacy,[5]; [35],0%
same,Efficacy,[5]; [37],10%
same,Efficacy,[6]; [34],0%
same,Efficacy,[6]; [38],15%
same,Efficacy,[6]; [35],0%
same,Efficacy,[6]; [37],10%
same,Efficacy,[7]; [31],70%
same,Efficacy,[8]; [34],0%
same,Efficacy,[8]; [38],25%
same,Efficacy,[8]; [39],0%
same,Efficacy,[8]; [35],0%
same,Efficacy,[8]; [36],5%
same,Efficacy,[8]; [37],5%
same,Efficacy,[9]; [34],0%
same,Efficacy,[9]; [38],0%
same,Efficacy,[9]; [36],0%
same,Efficacy,[9]; [37],0%
same,Efficacy,[10]; [34],5%
same,Efficacy,[10]; [38],20%
same,Efficacy,[10]; [35],0%
same,Efficacy,[10]; [37],0%
same,Efficacy,[11]; [34],0%
same,Efficacy,[11]; [38],30%
same,Efficacy,[11]; [36],15%
same,Efficacy,[12]; [31],40%
same,Efficacy,[12]; [32],30%
same,Efficacy,[13]; [34],0%
same,Efficacy,[13]; [38],30%
same,Efficacy,[13]; [39],0%
same,Efficacy,[13]; [35],0%
same,Efficacy,[13]; [36],20%
same,Efficacy,[13]; [37],20%
Cc1nnc(NC(=O)c2ccc(C(F)(F)F)nc2C)o1 [A2-1],Efficacy,[1]; [17],20%
same,Efficacy,[2]; [19],50%
same,Efficacy,[2]; [17],40%
same,Efficacy,[3]; 21 days after application,40%
same,Efficacy,[4]; [40],0%
same,Efficacy,[4]; [41],0%
same,Efficacy,[5]; [40],0%
same,Efficacy,[5]; [26],0%
same,Efficacy,[5]; [42],0%
same,Efficacy,[5]; [41],0%
same,Efficacy,[6]; [40],0%
same,Efficacy,[6]; [26],0%
same,Efficacy,[6]; [41],0%
same,Efficacy,[15]; 1 g of a.i./ha,10%
same,Efficacy,[8]; [40],15%
same,Efficacy,[8]; [42],0%
same,Efficacy,[8]; [41],15%
same,Efficacy,[9]; [26],70%
same,Efficacy,[9]; [43],20%
same,Efficacy,[9]; [44],60%
same,Efficacy,[10]; [40],15%
same,Efficacy,[10]; [43],0%
same,Efficacy,[10]; [42],0%
same,Efficacy,[12]; [17],60%
same,Efficacy,[13]; [43],80%
same,Efficacy,[13]; [42],80%
same,Efficacy,[13]; [44],85%
same,Efficacy,[13]; [41],85%
